Assay results reported in article PMC3726769 (PLoS ONE, 2013).
Like-named read-outs stand apart in the source and are kept apart here.

Key:
[1] = molecular target: collagen-like triple-helical peptide [GPO]2GFOGER[GPO]3; test: SEC; analytical SEC on Superdex 200 10/300 GL at 4°C, 100 mM Tris-HCl pH 7.5, 150 mM NaCl, 2 mM MgCl2; I domain 1 mg/ml with a greater than 2-fold molar excess of peptide, 30 min at 4°C before injection
wild-type α2 I domain [2] = test: Solid-phase binding assay of GST I domain to immobilised triple-helical peptides; design: species or system human; conditions: 1 μg peptide coated per well; 10 μg/ml GST I domain, 2 mM MgCl2; six paired experiments in triplicate (Fig. 2A)
Experimental: (§1) I domain adhesion was determined colorimetrically using a solid-phase binding assay, modified slightly from our previous studies, [16], [32] and specified below. Wells were coated using 1 μg peptide in 100 μl 0.01 M acetic acid for 1 h at 22°C on Immulon-2 HB 96-well plates (Thermo Life Sciences, Basingstoke, UK), and blocked for 1 h with 200 μl of TBS containing 50 mg/ml bovine serum albumin). Wells were washed four times with 200 μl of the adhesion buffer (TBS with 1 mg/ml bovine serum albumin) before adding 100 μl of adhesion buffer containing 10 μg/ml of recombinant GST I domains in the presence of either 2 mM MgCl2 or EDTA for 1 h at room temperature. Wells were washed five times with 200 μl of adhesion buffer containing MgCl2, before adding 100 μl of adhesion buffer containing Amersham anti-GST-HRP conjugate (RPN1236; GE Healthcare) at 1:10,000 dilution for 1 h at room temperature. After washing, colour was developed using an ImmunoPure TMB Substrate Kit (Pierce) according to the manufacturer’s instructions. Replacing Mg^2+ with EDTA abolished binding (not shown). Data for short peptide binding were compared using 2-way ANOVA to establish the overall effect of the E318W mutation, and using repeated measures 1-way ANOVA for specific comparisons (Prism 5.0 for Mac, GraphPad).

α2 I E318W [3] = type: binding, human
α2 I E318W [4] = type: binding, human; remark: listed apart in the source
Experimental: as §1

wild-type α2 I domain [5] = test: Analytical size exclusion chromatography of I domain-collagen peptide complexes; type: binding, human
Experimental: After incubation for 30 min at 4°C, the solutions were injected onto a Superdex 200 10/300 GL column and run at 4°C at a flow rate of 0.5 ml/min in SEC buffer.

α2 I E318W [6] = test: as above; type: binding, human
Experimental: The lyophilised triple-helical peptides (GFOGER, GMOGER, GAOGER) were dissolved in 500 μl of 1 mg/ml stock solutions of either wild-type or E318W α2 I domains. The amount of peptide was chosen so as to yield a greater than 2-fold molar excess of peptide. After incubation for 30 min at 4°C, the solutions were injected onto a Superdex 200 10/300 GL column and run at 4°C at a flow rate of 0.5 ml/min in SEC buffer.

[7] = molecular target: T1, collagen-like triple-helical peptide [GPO]2GMOGER[GPO]3 (O denotes hydroxyproline; C-terminal amide); test: SEC; analytical SEC on Superdex 200 10/300 GL at 4°C, 100 mM Tris-HCl pH 7.5, 150 mM NaCl, 2 mM MgCl2; I domain 1 mg/ml with a greater than 2-fold molar excess of peptide, 30 min at 4°C before injection; conditions: both partners purified
T1 chain: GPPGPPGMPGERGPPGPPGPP

[8] = 1 μg peptide coated per well, 10 μg/ml GST I domain, 2 mM MgCl2, six paired experiments in triplicate (Fig. 2A)
[9] = SEC, Superdex 200, 4°C, peptide in >2-fold molar excess (Fig. 3)
[10] = SEC, Superdex 200, 4°C, peptide in >2-fold molar excess, 1 mg/ml I domain, 30 min incubation at 4°C, 100 mM Tris-HCl pH 7.5, 150 mM NaCl, 2 mM MgCl2
[11] = solid-phase binding, shorter triple-helical peptides, A450, six paired experiments (Fig. 2A), ANOVA p<0.001

wild-type integrin α2 I domain used in analytical SEC (domain or fragment)
stoichiometry N (I domain per triple-helical peptide) [1]: 1

GFOGER [positive control]
Binding of wild-type α2 I domain to shorter triple-helical Gxx'GEx'' peptides (A450) (wild-type α2 I domain [2]): bound well | Change in affinity of E318W compared with wild-type, increasing dose of I domain (α2 I E318W [3]; increasing concentrations of I domain on peptide coatings, single-site binding curves, 3 replicates in a single experiment (Fig. 2B)): modest increase in affinity | Binding of α2 I E318W to shorter triple-helical Gxx'GEx'' peptides (A450) (α2 I E318W [4]; [8]): bound well

GQRGER
Change in binding of α2 I E318W compared with wild-type α2 I domain (α2 I E318W [4]): several-fold increases

GVOGEA [shorter triple-helical peptide with the α1β1-specific motif GVOGEA]
Binding of wild-type α2 I domain to shorter triple-helical Gxx'GEx'' peptides (A450) (wild-type α2 I domain [2]): not recognised | Binding of α2 I E318W to shorter triple-helical Gxx'GEx'' peptides (A450) (α2 I E318W [4]; [8]): not recognised

GROGER
Binding of wild-type α2 I domain to shorter triple-helical Gxx'GEx'' peptides (A450) (wild-type α2 I domain [2]): bound well | Binding of α2 I E318W to shorter triple-helical Gxx'GEx'' peptides (A450) (α2 I E318W [4]): bound well

His-tagged integrin α2 I domain E318W (for SEC and crystallisation) (from UniProt P17301 171-368) (domain or fragment)
stoichiometry N (I domains per triple-helical peptide) [1]: 2

[GPO]2GFOGER[GPO]3 [GFOGER peptide, short homotrimeric collagen-like peptide [GPO]2GFOGER[GPO]3 used for SEC and crystallisation]
Reduction in elution volume of wild-type α2 I domain on addition of peptide (wild-type α2 I domain [5]; [9]): 0.6 mL | Complex formation with wild-type α2 I in solution (I domain:peptide stoichiometry) (wild-type α2 I domain [5]; [10]): formed a 1:1 complex | Apparent mass of the wild-type α2 I-peptide complex derived from the calibration of the SEC column (wild-type α2 I domain [5]; Superdex 200, 4°C (Fig. 3)): 31 kDa | Reduction in elution volume of α2 I E318W on addition of peptide (α2 I E318W [6]; [9]): 1.4 mL | Complex formation with α2 I E318W in solution (I domain:peptide stoichiometry) (α2 I E318W [6]; [10]): appeared to form a 2:1 complex | Apparent mass of the α2 I E318W-peptide complex from calibration of the SEC column (α2 I E318W [6]; Superdex 200, 4°C (Fig. 3), calculated mass 56.1 kDa): 44 kDa

GLOGEN
Binding of wild-type α2 I domain to shorter triple-helical Gxx'GEx'' peptides (A450) (wild-type α2 I domain [2]): bound well | Binding of α2 I E318W to shorter triple-helical Gxx'GEx'' peptides (A450) (α2 I E318W [4]; [8]): bound well

GFOGEK
Binding of wild-type α2 I domain to shorter triple-helical Gxx'GEx'' peptides (A450) (wild-type α2 I domain [2]): bound well | Binding of α2 I E318W to shorter triple-helical Gxx'GEx'' peptides (A450) (α2 I E318W [4]): bound well

GASGER
Change in binding of α2 I E318W compared with wild-type α2 I domain (α2 I E318W [4]): several-fold increases

GMOGER
Change in affinity of E318W compared with wild-type, increasing dose of I domain (α2 I E318W [3]): substantially greater increase in affinity | Change in binding of α2 I E318W compared with wild-type α2 I domain (α2 I E318W [4]): doubling in amplitude | Change in binding of α2 I E318W compared with wild-type α2 I domain (α2 I E318W [4]; [11]): substantial increase

GLOGEA
Binding of wild-type α2 I domain to shorter triple-helical Gxx'GEx'' peptides (A450) (wild-type α2 I domain [2]): bound well | Binding of α2 I E318W to shorter triple-helical Gxx'GEx'' peptides (A450) (α2 I E318W [4]): bound well

GFPGER
Binding of wild-type α2 I domain to shorter triple-helical Gxx'GEx'' peptides (A450) (wild-type α2 I domain [2]): bound well | Binding of α2 I E318W to shorter triple-helical Gxx'GEx'' peptides (A450) (α2 I E318W [4]): bound well | Change in binding of α2 I E318W compared with wild-type α2 I domain (α2 I E318W [4]; [11]): equally well

GAOGER
Change in affinity of E318W compared with wild-type, increasing dose of I domain (α2 I E318W [3]): substantially greater increase in affinity

GLKGEN
Change in binding of α2 I E318W compared with wild-type α2 I domain (α2 I E318W [4]): several-fold increases

GLOGER
Binding of wild-type α2 I domain to shorter triple-helical Gxx'GEx'' peptides (A450) (wild-type α2 I domain [2]): bound well | Binding of α2 I E318W to shorter triple-helical Gxx'GEx'' peptides (A450) (α2 I E318W [4]; [8]): bound well

B1: His-tagged integrin α2 I domain E318W (for SEC and crystallisation) (domain or fragment, human)
chain: SLIDVVVVCDESNSIYPWDAVKNFLEKFVQGLDIGPTKTQVGLIQYANNPRVVFNLNTYKTKEEMIVATSQTSQYGGDLTNTFGAIQYARKYAYSAASGGRRSATKVMVVVTDGESHDGSMLKAVIDQCNHDNILRFGIAVLGYLNRNALDTKNLIKEIKAIASIPTERYFFNVSDWAALLEKAGTLGEQIFSIEGTV
notes: also called α2 I E318W; E318W I domain; source: E. coli Origami, purified (HisTrap FF, SEC on Superdex 75)
stoichiometry N [7]: 1 I domain per triple-helical peptide
